Where two headings read alike, the source gives them in different places.
How the values were obtained:
[1] = biological target: T1, GT1a D168A NS3/4A protease (UniProt P27958, D1194A, species not given); assay type: biochemical, Hepatitis C virus
T1 construct: rows headed: Ki (nM) D168A; Ki D168A; other: D168A variant
Procedure, shortened: (§1)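 NS3/4A protease (2 nM; wild-type GT1a or D168A) pre-incubated 1 h at room temperature with increasing inhibitor in 50 mM Tris pH 7.5, 5% glycerol, 10 mM DTT, 0.6 mM LDAO, 4% DMSO. Ki from three independent data sets per construct; ΔG=RTlnKi.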

[2] = biological target: GT1a D168A NS3/4A protease; assay type: biochemical, Hepatitis C virus; conditions: for Ki (Fold change) GT1a D168A NS3/4A Protease: Table 3, Ki D168A relative to GT1a WT
Procedure, shortened: as §1

[3] = biological target: T2, wild-type GT1a NS3/4A protease (UniProt P27958); assay type: biochemical, Hepatitis C virus
T2 construct: Ki WT; other: wild-type HCV NS3/4A protease
Procedure, shortened: as §1

[4] = biological target: GT1a R155K NS3/4A protease; assay type: biochemical, Hepatitis C virus; conditions: fold change in Ki, R155K relative to WT
Protocol: (§2) For each assay, 2 nM of NS3/4A protease (GT1a, R155K and D168A) was pre-incubated at room temperature for 1 h with increasing concentration of inhibitors in assay buffer (50 mM Tris, 5% glycerol, 10 mM DTT, 0.6 mM LDAO, and 4% dimethyl sulfoxide, pH 7.5). Inhibition assays were performed in non-binding surface 96-well black half-area plates (Corning) in a reaction volume of 60 μL. […] Three independent data sets were collected for each inhibitor with each protease construct. […] Gibbs free energy of binding was calculated using the following equation: ΔG=RTlnKi

[5] = biological target: GT1a R155K NS3/4A protease (UniProt P27958, R1181K, species not given); assay type: biochemical, Hepatitis C virus
Protocol: as §2

[6] = biological target: T3, wild-type GT1a NS3/4A protease (UniProt P27958, C1185S, species not given); assay type: biochemical, Hepatitis C virus; conditions: read-out: Ki (nM) GT1a WT NS3/4A Protease
T3 construct: Ki (nM) GT1a WT NS3/4A Protease
Procedure, shortened: as §1

[7] = biological target: T4, GT1a D168A NS3/4A protease (UniProt P27958, C1185S/D1194A, species not given); assay type: biochemical, Hepatitis C virus; conditions: read-out: Ki (nM) GT1a D168A NS3/4A Protease
T4 construct: Ki (nM) GT1a D168A NS3/4A Protease
Procedure, shortened: as §1

[8] = tested on: HCV replicon A156T variant in Huh7 cells; experiment: microbe, parasite or virus in culture; assay type: cell-based, Hepatitis C virus; conditions: for EC50: Hepatitis C virus; for Replicon EC50 (Fold change) A156T: Table 4, relative to WT replicon
Procedure, shortened: (§3)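 Variants made by site-directed mutagenesis in a Con1 (genotype 1b) luciferase reporter replicon carrying H77 (genotype 1a) NS3. Replicon RNA electroporated into Huh7 cells; luciferase (RLU) measured 96 h post-electroporation across increasing protease inhibitor concentrations.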

[9] = tested on: HCV replicon D168A variant in Huh7 cells; experiment: microbe, parasite or virus in culture; assay type: cell-based, Hepatitis C virus; conditions: for EC50: Hepatitis C virus; for Replicon EC50 (Fold change) D168A: Table 4, relative to WT replicon
Procedure, shortened: as §3

[10] = tested on: HCV replicon R155K variant in Huh7 cells; experiment: microbe, parasite or virus in culture; assay type: cell-based, Hepatitis C virus; conditions: for EC50: Hepatitis C virus; for Replicon EC50 (Fold change) R155K: Table 4, relative to WT replicon
Procedure, shortened: as §3

[11] = tested on: wild-type HCV replicon in Huh7 cells; experiment: Cell-based drug susceptibility (replicon) assay, wild-type; conditions: Hepatitis C virus, read-out: Replicon EC50 (nM) WT
Procedure, shortened: as §3

[12] = tested on: HCV replicon D168V variant in Huh7 cells; experiment: microbe, parasite or virus in culture; assay type: cell-based, Hepatitis C virus; conditions: for EC50: Hepatitis C virus; for Replicon EC50 (Fold change) D168V: Table 4, relative to WT replicon
Procedure, shortened: as §3

GT3a NS3/4A protease = biological target: T5, GT3a NS3/4A protease (Hepatitis C virus genotype 3a, UniProt Q81495); experiment: biochemical; conditions: for Ki (Fold change) GT3a NS3/4A Protease: Table 3, Ki GT3a relative to GT1a WT
T5 construct: drug-resistant variant D168A, and GT3a NS3/4A protease; made in house; host or cells: Escherichia coli BL21(DE3)
Protocol: For each assay, 2 nM of NS3/4A protease (GT1, D168A and GT3) was pre-incubated at room temperature for 1 h with increasing concentration of inhibitors in assay buffer [50 mM Tris, 5% glycerol, 10 mM DTT, 0.6 mM LDAO, and 4% dimethyl sulfoxide]. Inhibition assays were performed in nonbinding surface 96-well black half-area plates (Corning) in a reaction volume of 60 μt. […] Three independent data sets were collected for each inhibitor with each protease construct.

[13] = Huh-7, 96 h, read-out: Replicon EC50 (nM) A156T, Table 2, Huh7 cells, luciferase 96 h
[14] = Huh-7, read-out: Replicon EC50 (nM) A156T, Table 4
[15] = Huh-7, 96 h, read-out: Replicon EC50 (nM) D168A, Table 2, Huh7 cells, luciferase 96 h
[16] = Huh-7, read-out: Replicon EC50 (nM) D168A, Table 4
[17] = Huh-7, 96 h, read-out: Replicon EC50 (nM) R155K, Table 2, Huh7 cells, luciferase 96 h
[18] = Huh-7, read-out: Replicon EC50 (nM) R155K, Table 4
[19] = Huh-7, 96 h, Table 2, Huh7 cells, luciferase 96 h
[20] = Huh-7, 96 h, read-out: Replicon EC50 (nM) D168V, Table 2, Huh7 cells, luciferase 96 h
[21] = Huh-7, read-out: Replicon EC50 (nM) D168V, Table 4

T5 sequence (Q81495 1033-1214): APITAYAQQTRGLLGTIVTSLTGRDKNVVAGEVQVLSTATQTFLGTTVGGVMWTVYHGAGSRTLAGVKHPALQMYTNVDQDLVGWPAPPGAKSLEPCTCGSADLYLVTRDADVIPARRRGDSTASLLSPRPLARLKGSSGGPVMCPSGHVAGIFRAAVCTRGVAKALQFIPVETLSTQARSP

| Structure (SMILES) | Ki (Fold change) GT1a D168A NS3/4A Protease [2] | Ki ([6]; Table 1) | Ki ([6]; Table 3) | Ki ([7]; Table 1) | Ki ([7]; Table 3) | EC50 [8, 13] | EC50 [8, 14] | Replicon EC50 (Fold change) A156T [8] | EC50 [9, 15] | EC50 [9, 16] | Replicon EC50 (Fold change) D168A [9] | EC50 [10, 17] | EC50 [10, 18] | Replicon EC50 (Fold change) R155K [10] | EC50 [11, 19] | EC50 ([11]; Huh-7, Table 4) | EC50 [12, 20] | EC50 [12, 21] | Replicon EC50 (Fold change) D168V [12] | Ki (GT3a NS3/4A protease) | further results |
| --- | --- | --- | --- | --- | --- | --- | --- | --- | --- | --- | --- | --- | --- | --- | --- | --- | --- | --- | --- | --- | --- |
| C=C[C@@H]1C[C@]1(NC(=O)[C@@H]1C[C@@H](Oc2nc3cc(OC)ccc3nc2C)CN1C(=O)[C@@H](NC(=O)OC(C)(C)C)C(C)(C)C)C(=O)NS(=O)(=O)C1CC1 [Compound 9b, tert-Butyl ((S)-1-((2S,4R)-2-(((1R,2S)-1-((cyclopropylsulfonyl)carbamoyl)-2-vinylcyclopropyl)carbamoyl)-4-((7-methoxy-3-methylquinoxalin-2-yl)oxy)pyrrolidin-1-yl)-3,3-dimethyl-1-oxobutan-2-yl)carbamate] |  |  |  |  |  |  |  |  |  |  |  |  |  |  |  |  |  |  |  |  | Ki ([1]; read-out: Ki (nM) D168A, Table 8, linear inhibitors): 290 ± 24 nM; Ki ([1]; read-out: Ki D168A, D168A variant): 290 ± 24 nM; Ki D168A (fold change) ([2]; fold change in Ki, D168A relative to WT): 16; Ki ([3]; read-out: Ki (nM) WT, Table 8, linear inhibitors): 18 ± 1.6 nM; Ki ([3]; read-out: Ki WT, wild-type HCV NS3/4A protease): 18 ± 1.6 nM; Ki R155K (fold change) [4]: 0.5; Ki ([5]; read-out: Ki (nM) R155K, Table 8, linear inhibitors): 8.5 ± 2.1 nM; Ki ([5]; read-out: Ki R155K, R155K variant): 8.5 ± 2.1 nM |
| CCc1nc2ccc(OC)cc2nc1O[C@@H]1C[C@H]2C(=O)N[C@]3(C(=O)NS(=O)(=O)C4(C)CC4)C[C@H]3/C=C\CCCCC[C@H](NC(=O)OC3CCCC3)C(=O)N2C1 [Compound 23a, Cyclopentyl ((2R,6S,13aS,14aR,16aS,Z)-2-((3-ethyl-7-methoxyquinoxalin-2-yl)oxy)-14a-(((1-methylcyclopropyl)sulfonyl)carbamoyl)-5,16-dioxo-1,2,3,5,6,7,8,9,10,11,13a,14,14a,15,16,16a-hexadecahydrocyclopropa[e]pyrrolo[1,2-a][1,4]diazacyclopentadecin-6-yl)carbamate] | (40) fold | 1.37 nM | 1.37 nM | 55.2 nM | 55.2 ± 5.3 nM | 10.6 nM | 10.6 nM | (66) fold | 3.45 nM | 3.45 nM | (22) fold | 2.07 nM | 2.07 nM | (13) fold | 0.16 nM | 0.16 nM | 7.08 nM | 7.08 nM | (44) fold | 186 nM | Ki (Fold change) GT3a NS3/4A Protease (GT3a NS3/4A protease): (136) fold |
| COc1ccc2nc(Cl)c(O[C@@H]3C[C@H]4C(=O)N[C@]5(C(=O)NS(=O)(=O)C6(C)CC6)C[C@H]5/C=C\CCCCC[C@H](NC(=O)OC5CCCC5)C(=O)N4C3)nc2c1 [Compound 23c, Cyclopentyl ((2R,6S,13aS,14aR,16aS,Z)-2-((3-chloro-7-methoxyquinoxalin-2-yl)oxy)-14a-(((1-methylcyclopropyl)sulfonyl)carbamoyl)-5,16-dioxo-1,2,3,5,6,7,8,9,10,11,13a,14,14a,15,16,16a-hexadecahydrocyclopropa[e]pyrrolo[1,2-a][1,4]diazacyclopentadecin-6-yl)carbamate] | (58) fold | 0.44 nM | 0.44 nM | 25.7 nM | 25.7 ± 1.8 nM | 4.32 nM | 4.32 nM | (29) fold | 0.97 nM | 0.97 nM | (6) fold | 0.56 nM | 0.56 nM | (4) fold | 0.15 nM | 0.15 nM | 1.09 nM | 1.09 nM | (7) fold | 61 nM | Ki (Fold change) GT3a NS3/4A Protease (GT3a NS3/4A protease): (139) fold |
| COc1ccc2nc(C(F)(F)F)c(O[C@@H]3C[C@H]4C(=O)N[C@]5(C(=O)NS(=O)(=O)C6(C)CC6)C[C@H]5/C=C\CCCCC[C@H](NC(=O)OC5CCCC5)C(=O)N4C3)nc2c1 [Compound 23d, Cyclopentyl ((2R,6S,13aS,14aR,16aS,Z)-2-((7-methoxy-3-(trifluoromethyl)quinoxalin-2-yl)oxy)-14a-(((1-methylcyclopropyl)sulfonyl)carbamoyl)-5,16-dioxo-1,2,3,5,6,7,8,9,10,11,13a,14,14a,15,16,16a-hexadecahydrocyclopropa[e]pyrrolo[1,2-a][1,4]diazacyclopentadecin-6-yl)carbamate] | (14) fold | 8.14 nM | 8.14 nM | 110 nM | 110 ± 14 nM | 75.9 nM | 75.9 nM | (19) fold | 8.46 nM | 8.46 nM | (2) fold | 6.9 nM | 6.9 nM | (2) fold | 4.04 nM | 4.04 nM | 11.4 nM | 11.4 nM | (3) fold | 433 nM | Ki (Fold change) GT3a NS3/4A Protease (GT3a NS3/4A protease): (53) fold |

Reference: patent US11472778B2, “Hepatitis C virus NS3/4A protease inhibitors” (priority 2017, dated 2022)
